Data reported in patent US12077503B2, “Substituted cyclic amides and their use as herbicides” (FMC CORPORATION, priority 2015, dated 2024).

Experiments:
Type in all cases: in vivo
[1] = test system: barnyardgrass (Echinochloa crus-galli); test: Test G Pre-Emergence Protocol; details: Echinochloa crus-galli, pre-emergence, 312 h, evaluated after 13 days; for pest or weed control at 15.625 g/ha: 15.625 g ai/ha, read-out: Barnyard grass damage rating (100=total damage to plant; 0=no damage to plant); for pest or weed control at 62.5 g/ha: 62.5 g ai/ha, 100=total damage to plant, 0=no damage to plant, read-out: plant damage rating, Barnyardgrass; for pest or weed control at 250 g/ha: 250 g ai/ha, read-out: Barnyardgrass damage rating (100=total damage to plant; 0=no damage to plant)
Method in brief: (§1)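 Pots of seeds in standard soil were grown for one day in a glasshouse (24/16 °C day/night, 14 h light, 65% humidity), then sprayed with compound in acetone/water 50:50 with 0.5% Tween 20 at 15.625, 62.5 or 250 g/ha. Damage was scored after 13 days on a 0 (none) to 100 (total) scale.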

[2] = test system: corn (Zea mays); test: Test G Pre-Emergence Protocol; details: Zea mays, pre-emergence, 312 h, evaluated after 13 days; for plant injury at 15.625 g/ha: 15.625 g ai/ha; for plant injury at 15.625 g/ha / plant injury at 250 g/ha: read-out: Corn damage rating (100=total damage to plant; 0=no damage to plant); for plant injury at 62.5 g/ha: 62.5 g ai/ha, 100=total damage to plant, 0=no damage to plant, read-out: plant damage rating, Corn; for plant injury at 250 g/ha: 250 g ai/ha
Method in brief: as §1

[3] = test system: giant foxtail (Setaria faberi); test: Test G Pre-Emergence Protocol; details: Setaria faberi, pre-emergence, 312 h, evaluated after 13 days; for pest or weed control at 15.625 g/ha: 15.625 g ai/ha; for pest or weed control at 15.625 g/ha / pest or weed control at 250 g/ha: read-out: Foxtail, Giant damage rating (100=total damage to plant; 0=no damage to plant); for pest or weed control at 62.5 g/ha: 62.5 g ai/ha, 100=total damage to plant, 0=no damage to plant, read-out: plant damage rating, Foxtail, Giant; for pest or weed control at 250 g/ha: 250 g ai/ha
Method in brief: as §1

[4] = test system: ivy-leaved morning glory (Ipomoea hederacea); test: Test G Pre-Emergence Protocol; details: Ipomoea, pre-emergence, 312 h, evaluated after 13 days; for pest or weed control at 15.625 g/ha: 15.625 g ai/ha, read-out: Morning-glory, Ivy-leaved damage rating (100=total damage to plant; 0=no damage to plant); for pest or weed control at 62.5 g/ha: 62.5 g ai/ha, 100=total damage to plant, 0=no damage to plant, read-out: plant damage rating, Morningglory, Ivy-leaved; for pest or weed control at 250 g/ha: 250 g ai/ha, read-out: Morningglory, Ivy-leaved damage rating (100=total damage to plant; 0=no damage to plant)
Method in brief: as §1

[5] = test system: redroot pigweed (Amaranthus retroflexus); test: Test G Pre-Emergence Protocol; details: Amaranthus retroflexus, pre-emergence, 312 h, evaluated after 13 days; for pest or weed control at 15.625 g/ha: 15.625 g ai/ha; for pest or weed control at 15.625 g/ha / pest or weed control at 250 g/ha: read-out: Pigweed, Redroot damage rating (100=total damage to plant; 0=no damage to plant); for pest or weed control at 62.5 g/ha: 62.5 g ai/ha, 100=total damage to plant, 0=no damage to plant, read-out: plant damage rating, Pigweed, Redroot; for pest or weed control at 250 g/ha: 250 g ai/ha
Method in brief: as §1

[6] = test system: velvetleaf (Abutilon theophrasti); test: Test G Pre-Emergence Protocol; details: Abutilon theophrasti, pre-emergence, 312 h, evaluated after 13 days; for pest or weed control at 15.625 g/ha: 15.625 g ai/ha; for pest or weed control at 15.625 g/ha / pest or weed control at 250 g/ha: read-out: Velvetleaf damage rating (100=total damage to plant; 0=no damage to plant); for pest or weed control at 62.5 g/ha: 62.5 g ai/ha, 100=total damage to plant, 0=no damage to plant, read-out: plant damage rating, Velvetleaf; for pest or weed control at 250 g/ha: 250 g ai/ha
Method in brief: as §1

[7] = test system: barnyardgrass (Echinochloa crus-galli); test: Test G Post-Emergence Protocol; details: Echinochloa crus-galli, post-emergence, 312 h; for pest or weed control at 15.625 g/ha: 15.625 g ai/ha, evaluated after 13 days (100=total damage to plant; 0=no damage to plant), read-out: Barnyardgrass damage rating; for pest or weed control at 62.5 g/ha: 62.5 g ai/ha, read-out: Barnyardgrass damage rating (100=total damage to plant; 0=no damage to plant); for pest or weed control at 62.5 g/ha / pest or weed control at 250 g/ha: evaluated after 13 days; for pest or weed control at 250 g/ha: 250 g ai/ha, read-out: damage to plant, Barnyardgrass (100=total damage to plant; 0=no damage to plant)
Method in brief: (§2)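 Values are percent visual injury at 13 days after treatment (0 none, 100 total). Treatment was a post-emergence spray at 15.625, 62.5 or 250 g/ha on 8-day-old pot plants kept at 24/16 °C.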

[8] = test system: corn (Zea mays); test: Test G Post-Emergence Protocol; details: Zea mays, post-emergence, 312 h; for plant injury at 15.625 g/ha: 15.625 g ai/ha, evaluated after 13 days (100=total damage to plant; 0=no damage to plant), read-out: Corn damage rating; for plant injury at 62.5 g/ha: 62.5 g ai/ha, read-out: Corn damage rating (100=total damage to plant; 0=no damage to plant); for plant injury at 62.5 g/ha / plant injury at 250 g/ha: evaluated after 13 days; for plant injury at 250 g/ha: 250 g ai/ha, read-out: damage to plant, Corn (100=total damage to plant; 0=no damage to plant)
Method in brief: as §2

[9] = test system: giant foxtail (Setaria faberi); test: Test G Post-Emergence Protocol; details: Setaria faberi, post-emergence, 312 h; for pest or weed control at 15.625 g/ha: 15.625 g ai/ha, evaluated after 13 days (100=total damage to plant; 0=no damage to plant), read-out: Foxtail, Giant damage rating; for pest or weed control at 62.5 g/ha: 62.5 g ai/ha, read-out: Foxtail, Giant damage rating (100=total damage to plant; 0=no damage to plant); for pest or weed control at 62.5 g/ha / pest or weed control at 250 g/ha: evaluated after 13 days; for pest or weed control at 250 g/ha: 250 g ai/ha, read-out: damage to plant, Foxtail, Giant (100=total damage to plant; 0=no damage to plant)
Method in brief: as §2

[10] = test system: ivy-leaved morning glory (Ipomoea hederacea); test: Test G Post-Emergence Protocol; details: Ipomoea, post-emergence, 312 h; for pest or weed control at 15.625 g/ha: 15.625 g ai/ha, evaluated after 13 days (100=total damage to plant; 0=no damage to plant), read-out: Morningglory, Ivy-leaved damage rating; for pest or weed control at 62.5 g/ha: 62.5 g ai/ha, read-out: Morningglory, Ivy-leaved damage rating (100=total damage to plant; 0=no damage to plant); for pest or weed control at 62.5 g/ha / pest or weed control at 250 g/ha: evaluated after 13 days; for pest or weed control at 250 g/ha: 250 g ai/ha, read-out: damage to plant, Morningglory, Ivy-leaved (100=total damage to plant; 0=no damage to plant)
Method in brief: as §2

[11] = test system: redroot pigweed (Amaranthus retroflexus); test: Test G Post-Emergence Protocol; details: Amaranthus retroflexus, post-emergence, 312 h; for pest or weed control at 15.625 g/ha: 15.625 g ai/ha, evaluated after 13 days (100=total damage to plant; 0=no damage to plant), read-out: Pigweed, Redroot damage rating; for pest or weed control at 62.5 g/ha: 62.5 g ai/ha, read-out: Pigweed, Redroot damage rating (100=total damage to plant; 0=no damage to plant); for pest or weed control at 62.5 g/ha / pest or weed control at 250 g/ha: evaluated after 13 days; for pest or weed control at 250 g/ha: 250 g ai/ha, read-out: damage to plant, Pigweed, Redroot (100=total damage to plant; 0=no damage to plant)
Method in brief: as §2

[12] = test system: velvetleaf (Abutilon theophrasti); test: Test G Post-Emergence Protocol; details: Abutilon theophrasti, post-emergence, 312 h; for pest or weed control at 15.625 g/ha: 15.625 g ai/ha, evaluated after 13 days (100=total damage to plant; 0=no damage to plant), read-out: Velvetleaf damage rating; for pest or weed control at 62.5 g/ha: 62.5 g ai/ha, read-out: Velvetleaf damage rating (100=total damage to plant; 0=no damage to plant); for pest or weed control at 62.5 g/ha / pest or weed control at 250 g/ha: evaluated after 13 days; for pest or weed control at 250 g/ha: 250 g ai/ha, read-out: damage to plant, Velvetleaf (100=total damage to plant; 0=no damage to plant)
Method in brief: as §2

SMILES	pest or weed control at 15.625 g/ha [1]	pest or weed control at 62.5 g/ha [1]	pest or weed control at 250 g/ha [1]	plant injury at 15.625 g/ha [2]	plant injury at 62.5 g/ha [2]	plant injury at 250 g/ha [2]	pest or weed control at 15.625 g/ha [3]	pest or weed control at 62.5 g/ha [3]	pest or weed control at 250 g/ha [3]	pest or weed control at 15.625 g/ha [4]	pest or weed control at 62.5 g/ha [4]	pest or weed control at 250 g/ha [4]	pest or weed control at 15.625 g/ha [5]	pest or weed control at 62.5 g/ha [5]	pest or weed control at 250 g/ha [5]	pest or weed control at 15.625 g/ha [6]	pest or weed control at 62.5 g/ha [6]	pest or weed control at 250 g/ha [6]	pest or weed control at 15.625 g/ha [7]	pest or weed control at 62.5 g/ha [7]	further results
CN1C[C@@H](c2ccc(C(F)(F)F)cc2)[C@H](C(=O)Nc2cncc(Cl)n2)C1=O (racemic) [Compound 1574]	0%	0%	60%	0%	0%	0%	0%	0%	70%	0%	0%	0%	0%	0%	30%	0%	0%	0%	0%	0%	pest or weed control at 250 g/ha [7]: 40%; plant injury at 15.625 g/ha [8]: 0%; plant injury at 62.5 g/ha [8]: 0%; plant injury at 250 g/ha [8]: 0%; pest or weed control at 15.625 g/ha [9]: 0%; pest or weed control at 62.5 g/ha [9]: 0%; pest or weed control at 250 g/ha [9]: 60%; pest or weed control at 15.625 g/ha [10]: 0%; pest or weed control at 62.5 g/ha [10]: 0%; pest or weed control at 250 g/ha [10]: 40%; pest or weed control at 15.625 g/ha [11]: 0%; pest or weed control at 62.5 g/ha [11]: 0%; pest or weed control at 250 g/ha [11]: 0%; pest or weed control at 15.625 g/ha [12]: 0%; pest or weed control at 62.5 g/ha [12]: 0%; pest or weed control at 250 g/ha [12]: 0%
Cc1cnc(NC(=O)[C@@H]2C(=O)N(C)C[C@H]2c2ccc(C(F)(F)F)cc2)nc1 (racemic) [Compound 1575]	0%	0%	0%	0%	0%	0%	0%	0%	0%	0%	0%	0%	0%	0%	0%	0%	0%	0%	0%	0%	pest or weed control at 250 g/ha [7]: 0%; plant injury at 15.625 g/ha [8]: 0%; plant injury at 62.5 g/ha [8]: 0%; plant injury at 250 g/ha [8]: 0%; pest or weed control at 15.625 g/ha [9]: 0%; pest or weed control at 62.5 g/ha [9]: 0%; pest or weed control at 250 g/ha [9]: 0%; pest or weed control at 15.625 g/ha [10]: 0%; pest or weed control at 62.5 g/ha [10]: 0%; pest or weed control at 250 g/ha [10]: 0%; pest or weed control at 15.625 g/ha [11]: 0%; pest or weed control at 62.5 g/ha [11]: 0%; pest or weed control at 250 g/ha [11]: 0%; pest or weed control at 15.625 g/ha [12]: 0%; pest or weed control at 62.5 g/ha [12]: 0%; pest or weed control at 250 g/ha [12]: 0%
Cc1onc(NC(=O)[C@@H]2C(=O)N(C)C[C@H]2c2ccc(C(F)(F)F)cc2)c1Cl (racemic) [Compound 1580]	0%	0%	0%	0%	0%	0%	0%	0%	0%	0%	0%	0%	0%	0%	0%	0%	0%	0%	0%	0%	pest or weed control at 250 g/ha [7]: 0%; plant injury at 15.625 g/ha [8]: 0%; plant injury at 62.5 g/ha [8]: 0%; plant injury at 250 g/ha [8]: 0%; pest or weed control at 15.625 g/ha [9]: 0%; pest or weed control at 62.5 g/ha [9]: 0%; pest or weed control at 250 g/ha [9]: 0%; pest or weed control at 15.625 g/ha [10]: 0%; pest or weed control at 62.5 g/ha [10]: 0%; pest or weed control at 250 g/ha [10]: 0%; pest or weed control at 15.625 g/ha [11]: 0%; pest or weed control at 62.5 g/ha [11]: 0%; pest or weed control at 250 g/ha [11]: 0%; pest or weed control at 15.625 g/ha [12]: 0%; pest or weed control at 62.5 g/ha [12]: 0%; pest or weed control at 250 g/ha [12]: 0%
